The record followed here is ChEMBL document CHEMBL1201862, “PubChem BioAssay data set” (2004).

Among the test systems are M14; TK-10; ACHN; MDA-MB-231; NCI/ADR-RES; RPMI-8226; HCC 2998; SW-620; SR; A498; MCF7; 786-0; DLD-1; DMS-114; M19-MEL; KM-20L2; SNB-78.
Test in all cases: inhibition of tumour cell growth, NCI panel, 48 h

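Test compounds were applied to cells in 96-well plates for 48 hours at 5 doses. GI50 = concentration required for 50% inhibition of growth.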 Calls of active or inactive are those of the source. Rule as the data show it: active = GI50 up to about 1.1 µM and inactive = higher. Bounds are passed on as bounds.

For `COc1ccc(N2C(=O)C3c4[nH]c5cc(C)ccc5c4C4CCC(C(C)(C)C)CC4C3C2=O)cc1` (stereo unspecified), the GI50 is > 10 µM (inactive) with M14; > 10 µM (inactive) in the experiment on TK-10; > 10 µM (inactive) in the experiment with ACHN; > 10 µM (inactive) with MDA-MB-231; 3.66 µM (inactive) with NCI/ADR-RES; > 10 µM (inactive) with RPMI-8226. Moreover, the GI50 in the experiment with HCC 2998 was > 10 µM (inactive); in the experiment on SW-620 it was > 10 µM (inactive); with SR, > 10 µM (inactive); in the experiment with A498, 5.21 µM (inactive); in the experiment with MCF7, > 10 µM (inactive).
`O=C(O)CN1CCCC(Cc2c[nH]c3ccccc23)C1` (stereo unspecified): the GI50 in the experiment on M14, in the experiment with TK-10, in the experiment with ACHN, in the experiment with MDA-MB-231, with NCI/ADR-RES and in the experiment on HCC 2998 was > 100 µM (inactive) each time. In addition, the GI50 in the experiment with SW-620 is > 100 µM (inactive).
Regarding `O=C(O)c1cccc2cccc(-c3c4ccc(=O)cc-4oc4cc(O)ccc34)c12`, the GI50 in the experiment on M14 was > 100 µM (inactive); in the experiment on TK-10 it was > 100 µM (inactive); in the experiment with ACHN, > 100 µM (inactive); with MDA-MB-231, 81.1 µM (inactive); in the experiment with NCI/ADR-RES, > 100 µM (inactive); with RPMI-8226, 32.6 µM (inactive). The GI50 was > 100 µM (inactive) with HCC 2998, 49.7 µM (inactive) in the experiment on SW-620, > 100 µM (inactive) in the experiment with A498 and > 100 µM (inactive) with MCF7.
As to `O=C1C[C@H](c2ccccc2)C2(C(=O)c3ccccc3C2=O)[C@@H](c2ccccc2)C1`, the GI50 in the experiment with M14 is 6.24 µM (inactive); in the experiment on MDA-MB-231, 20.7 µM (inactive); in the experiment on NCI/ADR-RES, 23.2 µM (inactive); in the experiment with RPMI-8226, > 100 µM (inactive); with HCC 2998, 23.3 µM (inactive); with SR it was 92.7 µM (inactive). In addition, the GI50 was 7.64 µM (inactive) with A498 and 37.2 µM (inactive) in the experiment with MCF7.
With `CC1OC(OC2C(OC(=O)[C@@H]3CC(C)(C)C[C@H]4C5=CC[C@@H]6[C@@]7(C)C[C@H](O)[C@H](OC8OC(CO)C(O)C(O)C8O)[C@@](C)(CO)[C@@H]7[C@H](O)C[C@@]6(C)[C@]5(C)CC[C@@]34C)OCC(O)C2O)C(O)C(O)C1O` (stereo partly specified), the GI50 with M14, in the experiment on TK-10, in the experiment with ACHN, in the experiment on MDA-MB-231, with 786-0 and in the experiment with NCI/ADR-RES was > 7.5 µM (inactive) each time. Also, the GI50 in the experiment on HCC 2998, in the experiment with SW-620 and in the experiment on MCF7 was > 7.5 µM (inactive) each time.
With `CN(C)CCN(/C(=N/c1ccccc1)N1CCCC1)c1ccccc1`, the GI50 with M14 is 43.7 µM (inactive); in the experiment with TK-10, > 100 µM (inactive); in the experiment with ACHN, > 100 µM (inactive); in the experiment on 786-0, > 10 µM (inactive); in the experiment on NCI/ADR-RES it was 42.3 µM (inactive); with RPMI-8226 it was 22.6 µM (inactive). Also, the GI50 in the experiment on SW-620 was 31.7 µM (inactive); in the experiment with SR it was 31.8 µM (inactive); with MCF7 it was 42.5 µM (inactive).
Regarding `CC1=C(C(=O)N[C@@H](CC(C)C)C(=O)O)N2C(=O)[C@@H](NC(=O)C(N)c3ccccc3)[C@H]2SC1` (stereo partly specified), the GI50 with M14, with TK-10, with ACHN, in the experiment with MDA-MB-231, with 786-0 and in the experiment on NCI/ADR-RES was > 100 µM (inactive) in each case. In addition, the GI50 in the experiment with RPMI-8226, in the experiment on HCC 2998, with SW-620, in the experiment on SR, in the experiment on A498 and with MCF7 was > 100 µM (inactive) throughout.
On to `O=C1c2ccccc2C(=O)c2c1ccc1c2N=C(c2ccc(F)cc2)CC(c2ccc(Cl)c(Cl)c2)N1` (stereo unspecified), for which the GI50 in the experiment with M14 is 18.2 µM (inactive); with TK-10, 13.8 µM (inactive); in the experiment with ACHN it was 13.9 µM (inactive); in the experiment with DLD-1, 12.9 µM (inactive); in the experiment with RPMI-8226 it was 3.15 µM (inactive); with HCC 2998 it was 13.6 µM (inactive). Moreover, the GI50 in the experiment with SW-620 is 6.11 µM (inactive); with SR it was 5.93 µM (inactive); in the experiment on A498 it was 19.5 µM (inactive); in the experiment with DMS-114 it was 10.1 µM (inactive); in the experiment on M19-MEL, 17.2 µM (inactive); in the experiment with KM-20L2, 15.7 µM (inactive). Also, the GI50 in the experiment on SNB-78 is 19.2 µM (inactive).
Regarding `O=C1OC(=O)C2C1C(c1ccccc1[N+](=O)[O-])C=C(c1ccco1)N2c1ccncc1` (stereo unspecified), the GI50 in the experiment on M14 is 6.84 µM (inactive); in the experiment on TK-10 it was 3.82 µM (inactive); in the experiment on ACHN, 1.85 µM (inactive); in the experiment with MDA-MB-231 it was 13 µM (inactive); with 786-0 it was 1.91 µM (inactive); with NCI/ADR-RES, 18.8 µM (inactive). The GI50 with RPMI-8226 is 1.87 µM (inactive); with HCC 2998, 1.86 µM (inactive); in the experiment with SW-620, 6.15 µM (inactive); with SR, 0.679 µM (active); in the experiment on A498, 12.2 µM (inactive); with MCF7 it was 2.1 µM (inactive).
As for `CC(C)C1CNC(=O)C2(/C=N/C(C(C)C)CNC(=O)C3(/C=N/1)CCCO3)CCCO2` (stereo unspecified), the GI50 with M14, in the experiment with TK-10, in the experiment on ACHN, in the experiment on MDA-MB-231, with 786-0 and in the experiment with NCI/ADR-RES was > 10 µM (inactive) in each case. In addition, the GI50 in the experiment with RPMI-8226, with HCC 2998, in the experiment with SW-620, with SR, in the experiment with A498 and in the experiment on MCF7 was > 10 µM (inactive) in each case.
Consider `Nc1c(Cl)c([N+](=O)[O-])cc2c1OCCCCO2`, for which the GI50 in the experiment with M14 was > 100 µM (inactive); in the experiment with TK-10, > 100 µM (inactive); with ACHN it was > 100 µM (inactive); with MDA-MB-231, 83.4 µM (inactive); in the experiment with 786-0 it was > 100 µM (inactive); in the experiment on NCI/ADR-RES, 89.5 µM (inactive). Also, the GI50 in the experiment with RPMI-8226, in the experiment on HCC 2998, in the experiment with SW-620, in the experiment on SR and with MCF7 was > 100 µM (inactive) throughout.
As for `O=C1/C(=C/c2ccc(Cl)cc2)CNC/C1=C\c1ccc(Cl)cc1`, the GI50 in the experiment on M14 was 3.71 µM (inactive); in the experiment on TK-10 it was 3.95 µM (inactive); in the experiment with ACHN it was 3.28 µM (inactive); in the experiment on MDA-MB-231 it was 2.88 µM (inactive); in the experiment on 786-0, 1.28 µM (inactive); in the experiment with NCI/ADR-RES it was 2.91 µM (inactive). The GI50 with RPMI-8226 was 0.5 µM (active); in the experiment with HCC 2998, 1.57 µM (inactive); with SW-620 it was 0.638 µM (active); in the experiment with SR, 0.495 µM (active); with A498, 4.65 µM (inactive); in the experiment on MCF7, 1.52 µM (inactive).
